In brackets after ≈: the same amount, converted by molar mass. Read-outs that look alike come from different tables or passages of the source.
Legend:
[1] = tested on: sCLU secreted from human U-87 MG glioblastoma cells; assay: Human sCLU AlphaLISA on supernatant of U-87 MG cells (HTS, re-test, dose response); type: cell-based; conditions: Homo sapiens; U-87 MG cells, 30 h, AlphaLISA of supernatant; read-out: EC50 for sCLU increase
Method: Cell culture supernatant (2 μL) was added to a 384-well proxy plate preloaded with AlphaLISA HiBlock buffer (2 µL, 1X, CAT#AL004C, Perkin Elmer). Then an anti-sCLU antibody mixture (2 µL, mAb J84, biotinylated (10 nM, Cat# 3717-6-1000, Mabtech) and mAb CLU aa 22-227 (Cat#AF7084, R&D Systems), Acceptor bead conjugated (50 µg/mL, Cat#6772001, Perkin Elmer)) was added and incubated at room temperature for 1 hour. AlphaScreen Streptavidin Donor beads (2 µL, Cat#6760002S, Perkin Elmer) were added, incubated for an additional 30 min in the dark, and the plate was read in an Envision plate reader.
Human glioblastoma U-87 MG cells were proliferated in EMEM with 10% FBS and 1% P/S (complete medium) in 10 cm dishes until approximately 90% confluent. Following trypsinization, a suspension of 2 × 10^5 cells/mL (25 µL) were added to 384-well plates containing complete medium (25 µL) and library compounds from 9 plates (5 µM). After incubation for 30 h at 37 °C and 5% CO2, 2 μL of cell culture supernatant were analyzed via human sCLU AlphaLISA as described above. Cell culture medium and cells were added to the 384-well plates using the MultiDrop. The BioMek FX was used to pin the drugs and transfer the cell culture supernatant. The MANTIS liquid handler was used to added human sCLU AlphaLISA reagents.
Human glioblastoma U-87 MG cells were proliferated in EMEM with 10% FBS and 1% P/S (complete medium) in 10 cm dishes until approximately 90% confluent. […] After incubation for 30 hours at 37 °C and 5% CO2, 2 μL of cell culture supernatant were analyzed via human sCLU AlphaLISA as described above.

[2] = target: BRD2 (Homo sapiens, UniProt P25440); assay: BRD2 inhibition assay; type: biochemical
[3] = Kinetic solubility; type: physicochemical; conditions: aqueous buffer, kinetic from dmso stock, PBS pH 7.4, 37 °C, 100 µM nominal
Method: Test compound (10 mM, 100% DMSO) was diluted separately into aqueous buffer (100 µM; PBS pH 7.4) and DMSO at various concentrations (1000, 100, 10, 1, 0.1 µM). The solutions were then incubated at 37 °C for 90 min and centrifuged (16000xg, 5 min). An aliquot of each supernatant was analyzed by UV/Vis (if possible) or LC-MS/MS. A standard curve was made by plotting the known amount of analyte per standard in DMSO vs. absorbance or chromatographic peak area. Kinetic solubility (mM) was calculated using the trendline equation with maximum absorbance or chromatographic peak area observed in the aqueous sample.

[4] = Brain tissue binding assay (dialysis); type: in vitro ADME
Method: Brain tissue was homogenized in PBS (pH 7.4) (1: 3 weight(mg)/volume(µL)) and the protein concentration was determined using the Micro BCA™ Protein Assay Kit (Thermo Fisher Scientific, Cat#23235). Brain homogenate was clarified and diluted to 20 mg/mL in PBS (pH 7.4). Either brain homogenate or plasma was and added to Slide-A-Lyzer™ MINI Dialysis Devices, 10 K MWCO dialysis cups (Thermo Fisher Scientific, Cat#PI88401) in a 48-well plate containing PBS (500 µL; pH 7.4). 1 µL of 1 mM compound was added to the brain homogenate (Final Concentration: 2 µM compound, 0.5% DMSO) and incubated on a rocker for 4.5 hours at 37 °C. 50 µL of brain homogenate or plasma (within the dialysis cup) and PBS (within the 48-well plate) were transferred to new microcentrifuge tubes containing 400 µL of quenching reagent (100% Acetonitrile) containing internal standard. Solutions were clarified by centrifugation (16,000 x g, 5 min), and the supernatants were transferred to new tubes and lyophilized. Samples were reconstituted in 100 µL of 50/50/0.1 (Water/Acetonitrile/Formic Acid) prior to analysis via liquid chromatography-tandem mass spectrometry (LC-MS/MS). The % of the unbound drug (fu,bound) was calculated using the following equation:
% Bound = [1− (PBS chromatographic peak area/ brain homogenate or plasma chromatographic peak area)] x 100

[5] = In-vivo pharmacokinetics, brain levels after oral administration; conditions: mice
Method: Following oral administration of compound, mice brain tissue and plasma were collected after euthanasia and perfusion at 1, 2, 4, 6 and 8 h. All animals will be euthanized by ketamine/xylazine injection to allow cardiac puncture and saline perfusion, which is consistent with recommendations of the AVMA Panel on Euthanasia. Brain tissue were homogenized in a bead beater using 5 volumes of ice-cold 80% acetonitrile (1/5; mg of brain/µL of 80% ACN). Plasma analytes were extracted using 4 volumes of ice-cold acetonitrile (1/4; µL of plasma/µL of ACN). Solutions were clarified by centrifugation (16,000 x g, 5 min) and the supernatants were transferred to new tubes and lyophilized. Samples were reconstituted in 100 µL of 50/50/0.1 (Water/Acetonitrile/Formic Acid) prior to analysis via liquid chromatography-tandem mass spectrometry (LC-MS/MS). An internal standard (IS) was added to every sample to account for compound loss during sample processing. Standards were made in drug naïve plasma and brain lysates with increasing amounts of analyte (S1,S2: 0 pmol/ S3,S4: 1 pmol/ S5,S6: 10 pmol/ S7,S8: 100 pmol, S9,S10: 1000 pmol). The standard curve was made by plotting the known amount of analyte per standard vs. the ratio of measured chromatographic peak areas corresponding to the analyte over that of the IS (analyte/IS). The trendline equation was then used to calculate the absolute concentrations of each compound in plasma and brain tissue.
Analysis of compound levels was done at the UCLA Pasarow Mass Spectrometry Lab (PMSL; Julian Whitelegge, Ph.D., Director). A targeted LC-MS/MS assay was developed for each compound using the multiple reaction monitoring (MRM) acquisition method on a 6460 triple quadrupole mass spectrometer (Agilent Technologies) coupled to a 1290 Infinity HPLC system (Agilent Technologies) with a Phenomenex analytical column (Kinetex 1.7 µm C18 100 Å 100 ×2.1 mm). The HPLC method utilized a mixture of solvent A ([…]) and solvent B ([…]) and a gradient was use for the elution of the compounds (min/%B: 0/1, 3/1, 19/99, 20/1, 30/1). Two fragment ions originating from each compound were monitored at specific LC retention times to ensure specificity and accurate quantification in the complex biological samples. The normalized chromatographic peak areas were determined by taking the ratio of measured chromatographic peak areas corresponding to each compound over that of the internal standard (Analyte/IS).

[6] = brain homogenate 20 mg/mL, 2 µM compound, dialysis 4.5 hours, 37 °C

BRD2, sequence (P25440 whole entry): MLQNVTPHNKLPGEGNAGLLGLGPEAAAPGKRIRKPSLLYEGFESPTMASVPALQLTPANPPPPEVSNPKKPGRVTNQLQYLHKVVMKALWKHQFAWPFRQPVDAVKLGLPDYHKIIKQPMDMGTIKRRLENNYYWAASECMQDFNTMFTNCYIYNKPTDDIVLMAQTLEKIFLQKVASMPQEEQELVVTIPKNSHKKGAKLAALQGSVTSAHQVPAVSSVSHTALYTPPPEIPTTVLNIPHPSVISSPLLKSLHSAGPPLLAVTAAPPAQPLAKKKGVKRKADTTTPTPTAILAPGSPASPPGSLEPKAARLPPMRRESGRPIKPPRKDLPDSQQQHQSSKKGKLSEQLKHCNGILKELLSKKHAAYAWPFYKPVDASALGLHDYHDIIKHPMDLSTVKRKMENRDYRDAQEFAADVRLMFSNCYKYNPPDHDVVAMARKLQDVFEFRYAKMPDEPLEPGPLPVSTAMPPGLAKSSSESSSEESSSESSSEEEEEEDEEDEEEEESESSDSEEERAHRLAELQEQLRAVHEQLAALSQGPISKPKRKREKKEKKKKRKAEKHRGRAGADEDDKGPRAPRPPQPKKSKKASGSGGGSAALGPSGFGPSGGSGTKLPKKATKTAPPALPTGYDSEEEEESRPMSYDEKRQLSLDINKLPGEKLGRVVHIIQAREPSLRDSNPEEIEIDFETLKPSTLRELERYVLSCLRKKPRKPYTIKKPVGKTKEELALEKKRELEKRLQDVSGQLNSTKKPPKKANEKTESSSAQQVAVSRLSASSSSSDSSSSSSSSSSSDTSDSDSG

SMILES	EC50 [1]	IC50 [2]	solubility kinetic at 90 min [3]	Brain Tissue Binding [4, 6]	unbound brain concentration versus sCLU EC50 ([5]; oral 3, 10 or 30 mg/kg (Fig. S6))	Brain Tissue Binding [4]	unbound brain concentration versus sCLU EC50 ([5]; oral 3 mg/kg, one hour post administration)	unbound brain concentration versus sCLU EC50 ([5]; oral 10 mg/kg, one hour post administration)	maximum brain concentration (total) ([5]; oral 30 mg/kg, one hour after administration)	concentration at 1 h ([5]; mouse, oral 30 mg/kg, 1 h, from total brain level and brain tissue binding 75.3%, read-out: unbound brain concentration)
Cc1sc2c(c1C)C(c1ccc(Cl)cc1)=N[C@@H](CC(=O)OC1COC1)c1nnc(C)n1-2 [DDL-356]	0.178 µM	0.158 µM	> 100 µM	57 % bound	reaches higher concentrations of unbound drug in the brain above its sCLU EC50 at lower doses					
Cc1sc2c(c1C)C(c1ccc(Cl)cc1)=N[C@@H](CC(=O)OC1CC1)c1nnc(C)n1-2 [DDL-357]	0.223 µM	0.161 µM	80 µM (≈ 35.3 µg/mL)	75 % bound		75.3%	below the sCLU EC50	below the sCLU EC50	1850 nM	457 nM

Reference: paper PMC12048343, “Discovery of a small molecule secreted clusterin enhancer that improves memory in Alzheimer’s disease mice” (npj Drug Discovery, 2025)
